# Columns and labels:
# A549 = assay: Antiproliferative activity against human A549 cells assessed as reduction in cell viability after 48 hrs by MTT assay; format: functional, cell-based; settings: A549, 48 h
# MDA-MB-231 = assay: Antiproliferative activity against human MDA-MB-231 cells assessed as reduction in cell viability after 48 hrs by MTT assay; format: functional, cell-based; settings: MDA-MB-231, 48 h
# L132 = assay: Cytotoxicity against human L132 cells assessed as reduction in cell viability after 48 hrs by MTT assay; format: cell-based; settings: L132, 48 h
# DU-145 = assay: Antiproliferative activity against human DU-145 cells assessed as reduction in cell viability after 48 hrs by MTT assay; format: functional, cell-based; settings: DU-145, 48 h
# [1] = Inhibition of Saccharomyces cerevisiae alpha-glucosidase using p-nitophenyl alpha […]D-glucoside incubated for 45 mins
# [2] = Inhibition of LPS-induced TNF-alpha expression in human U-937 cells preincubated for 1 hr followed by LPS addition and measured after 24 hrs by ELISA; format: functional, cell-based
# [3] = Inhibition of LPS-induced IL-1beta expression in human U-937 cells preincubated for 1 hr followed by LPS addition and measured after 24 hrs by ELISA; format: functional, cell-based
# U-87 MG = assay: Antiproliferative activity against human U87 cells assessed as reduction in cell viability after 48 hrs by MTT assay; format: functional, cell-based, U-87MG ATCC
# PC-3 = assay: Antiproliferative activity against human PC3 cells assessed as reduction in cell viability after 48 hrs by MTT assay; format: functional, cell-based; settings: PC-3, 48 h
# SiHa = assay: Antiproliferative activity against human SiHa cells assessed as reduction in cell viability after 48 hrs by MTT assay; format: functional, cell-based
Compound,IC50 (A549) [µM],IC50 (MDA-MB-231) [µM],IC50 (DU-145) [µM],IC50 [1] [µM],IC50 [2] [µM],IC50 [3] [µM],IC50 (U-87 MG) [µM],IC50 (PC-3) [µM],IC50 (L132) [µM],IC50 (SiHa) [µM]
C/C(=C\CC/C(C)=C/CC[C@@H]1[C@@]2(C)CCC(=O)C(C)(C)[C@H]2CC[C@@]1(C)O)CC/C=C(\C)C(=O)OCc1cn(-c2ccccc2C(F)(F)F)nn1,> 150,> 150,> 150,14.5,–,–,–,–,> 150,–
C/C(=C\CC/C(C)=C/CC[C@@H]1[C@@]2(C)CCC(=O)C(C)(C)[C@H]2CC[C@@]1(C)O)CC/C=C(\C)C(=O)OCc1cn(-c2ccccc2Br)nn1,> 150,> 150,> 150,–,–,–,–,–,> 150,–
C[C@H]1O[C@H](O[C@H]2[C@H](O)[C@@H](O)[C@@H](O[C@H]3[C@H](O)[C@@H](O)C(O)O[C@@H]3CO)O[C@@H]2CO)[C@H](O)[C@@H](O)[C@@H]1N[C@H]1C=C(CO)[C@@H](O)[C@H](O)[C@H]1O (stereo partly specified) [ACARBOSE],–,–,–,2120,–,–,–,–,–,–
C/C(=C\CC/C(C)=C/CC[C@@H]1[C@@]2(C)CCC(=O)C(C)(C)[C@H]2CC[C@@]1(C)O)CC/C=C(\C)C(=O)OCc1cn(-c2ccc(Br)cc2)nn1,> 150,–,> 150,11.3,–,–,> 150,–,> 150,–
C/C(=C\CC/C(C)=C/CC[C@@H]1[C@@]2(C)CCC(=O)C(C)(C)[C@H]2CC[C@@]1(C)O)CC/C=C(\C)C(=O)OCc1cn(-c2ccccc2F)nn1,> 150,> 150,> 150,–,–,–,–,–,> 150,–
C[C@]12C=CC(=O)C=C1CC[C@@H]1[C@@H]2[C@@H](O)C[C@@]2(C)[C@H]1CC[C@]2(O)C(=O)CO [PREDNISOLONE],–,–,–,–,0.64,0.44,–,–,–,–
C/C(=C\CC/C(C)=C/CC[C@@H]1[C@@]2(C)CCC(=O)C(C)(C)[C@H]2CC[C@@]1(C)O)CC/C=C(\C)C(=O)OCc1cn(-c2ccccc2)nn1,> 150,> 150,95.5,43.5,9.3,9.87,–,–,> 150,149
C/C(=C\CC/C(C)=C/CC[C@@H]1[C@@]2(C)CCC(=O)C(C)(C)[C@H]2CC[C@@]1(C)O)CC/C=C(\C)C(=O)OCc1cn(-c2cccc(F)c2)nn1,124,144,> 150,4.12,–,–,> 150,–,–,> 150
C/C(=C\CC/C(C)=C/CC[C@@H]1[C@@]2(C)CCC(=O)C(C)(C)[C@H]2CC[C@@]1(C)O)CC/C=C(\C)C(=O)OCc1cn(-c2cccc(Br)c2)nn1,> 150,–,> 150,–,–,–,–,–,> 150,–
COc1ccc(-n2cc(COC(=O)/C(C)=C/CC/C(C)=C/CC/C(C)=C/CC[C@@H]3[C@@]4(C)CCC(=O)C(C)(C)[C@H]4CC[C@@]3(C)O)nn2)cc1,> 150,> 150,135,–,–,–,–,–,> 150,–
C/C(=C\CC/C(C)=C/CC[C@@H]1[C@@]2(C)CCC(=O)C(C)(C)[C@H]2CC[C@@]1(C)O)CC/C=C(\C)C(=O)OCc1cn(-c2cccc(C)c2)nn1,> 150,–,137,13.4,–,–,–,–,> 150,> 150
C/C(=C\CC/C(C)=C/CC[C@@H]1[C@@]2(C)CCC(=O)C(C)(C)[C@H]2CC[C@@]1(C)O)CC/C=C(\C)C(=O)OCc1cn(-c2ccccc2C)nn1,> 150,> 150,> 150,–,–,–,–,–,> 150,–

# The next lines start with results.
IC50 (A549) [µM],IC50 (MDA-MB-231) [µM],IC50 (DU-145) [µM],IC50 [1] [µM],IC50 [2] [µM],IC50 [3] [µM],IC50 (U-87 MG) [µM],IC50 (PC-3) [µM],Compound,IC50 (L132) [µM],IC50 (SiHa) [µM]
> 150,> 150,–,–,–,–,–,–,C/C(=C\CC/C(C)=C/CC[C@@H]1[C@@]2(C)CCC(=O)C(C)(C)[C@H]2CC[C@@]1(C)O)CC/C=C(\C)C(=O)OCc1cn(-c2ccc(C(F)(F)F)cc2)nn1,> 150,–
15.3,> 150,> 150,–,8.1,14.1,–,–,C/C(=C\CC/C(C)=C/CC[C@@H]1[C@@]2(C)CCC(=O)C(C)(C)[C@H]2CC[C@@]1(C)O)CC/C=C(\C)C(=O)OCc1cn(C[C@@H]2O[C@H](n3ccc(=O)[nH]c3=O)[C@H]3OC(C)(C)O[C@H]32)nn1,> 150,–
> 150,–,> 150,17.6,–,–,–,–,COc1cccc(-n2cc(COC(=O)/C(C)=C/CC/C(C)=C/CC/C(C)=C/CC[C@@H]3[C@@]4(C)CCC(=O)C(C)(C)[C@H]4CC[C@@]3(C)O)nn2)c1,–,–
> 150,–,> 150,12.6,–,–,> 150,–,C/C(=C\CC/C(C)=C/CC[C@@H]1[C@@]2(C)CCC(=O)C(C)(C)[C@H]2CC[C@@]1(C)O)CC/C=C(\C)C(=O)OCc1cn(-c2ccc(C(C)(C)C)cc2)nn1,65.8,–
> 150,–,> 150,10.1,7.83,15.8,–,22.9,C/C(=C\CC/C(C)=C/CC[C@@H]1[C@@]2(C)CCC(=O)C(C)(C)[C@H]2CC[C@@]1(C)O)CC/C=C(\C)C(=O)OCc1cn(-c2ccc(F)c(Cl)c2)nn1,> 150,–
> 150,–,> 150,–,–,–,–,–,C/C(=C\CC/C(C)=C/CC[C@@H]1[C@@]2(C)CCC(=O)C(C)(C)[C@H]2CC[C@@]1(C)O)CC/C=C(\C)C(=O)OCc1cn(-c2ccc(C)cc2)nn1,> 150,–
> 150,–,> 150,–,9.12,66.6,–,–,C/C(=C\CC/C(C)=C/CC[C@@H]1[C@@]2(C)CCC(=O)C(C)(C)[C@H]2CC[C@@]1(C)O)CC/C=C(\C)C(=O)OCc1cn(-c2ccc(Cl)cc2)nn1,> 150,–
> 150,–,> 150,2.77,–,–,134,24.8,C/C(=C\CC/C(C)=C/CC[C@@H]1[C@@]2(C)CCC(=O)C(C)(C)[C@H]2CC[C@@]1(C)O)CC/C=C(\C)C(=O)OCc1cn(-c2cccc([N+](=O)[O-])c2)nn1,–,–
147,103,103,7.91,–,–,91.8,–,C/C(=C\CC/C(C)=C/CC[C@@H]1[C@@]2(C)CCC(=O)C(C)(C)[C@H]2CC[C@@]1(C)O)CC/C=C(\C)C(=O)OCc1cn(-c2cccc(Cl)c2)nn1,94.2,111
> 150,> 150,> 150,–,11.7,9.06,–,–,COc1ccccc1-n1cc(COC(=O)/C(C)=C/CC/C(C)=C/CC/C(C)=C/CC[C@@H]2[C@@]3(C)CCC(=O)C(C)(C)[C@H]3CC[C@@]2(C)O)nn1,> 150,–
> 150,> 150,> 150,13.4,–,–,–,–,C/C(=C\CC/C(C)=C/CC[C@@H]1[C@@]2(C)CCC(=O)C(C)(C)[C@H]2CC[C@@]1(C)O)CC/C=C(\C)C(=O)OCc1cn(-c2cccc(C(F)(F)F)c2)nn1,–,–
> 150,> 150,> 150,106,9.58,8.95,–,–,C/C(=C\CC/C(C)=C/CC[C@@H]1[C@@]2(C)CCC(=O)C(C)(C)[C@H]2CC[C@@]1(C)O)CC/C=C(\C)C(=O)OCc1cn(-c2ccccc2Cl)nn1,> 150,–
> 150,–,> 150,–,–,–,> 150,–,C/C(=C\CC/C(C)=C/CC[C@@H]1[C@@]2(C)CCC(=O)C(C)(C)[C@H]2CC[C@@]1(C)O)CC/C=C(\C)C(=O)OCc1cn(-c2ccc(F)cc2)nn1,> 150,–
